Legend:
[1] = test system: GAr-based inhibition of translation; assay: Yeast assay (assays described in Lista et al.); assay type: cell-based, Saccharomyces cerevisiae
Text: A yeast-based (Saccharomyces cerevisiae) assay that recapitulates all the aspects of the GAr-based inhibition of translation, including the GAr-length dependency, has been developed, that allowed understanding the mechanisms of GAr-mediated mRNA translation—suppression in cis, as well as the cellular factors involved (Lista et al. Biotechnol J 2015, 10, 1670-1681). This assay was successfully used to identify small molecular weight compounds that can stimulate EBNA1 expression both in yeast and mammalian cells and that relieve GAr-based limitation of antigen presentation (Voisset et al. Dis Model Mech 2014, 7, 435-444).
Compounds 1a, 2a, 4a, 5a, 7a, 10a and 11a were also tested in the various assay described in Lista et al. (Nat Commun 2017, 8, 16043).

quadruplex RNA F-EBNA1-T = assay: FRET-melting assay; assay type: binding, Epstein-Barr virus; details: for ΔTm, ligand + 3 μM ds26 / ΔTm, ligand + 10 μM ds26 / ΔTm, ligand alone: F-EBNA1-T 0.2 μM, ligand 1.0 μM, K+10 buffer; for ΔTm, ligand + 3 μM ds26: competitor DNA ds26 3 μM (15 eq); for ΔTm, ligand + 10 μM ds26: competitor DNA ds26 10 μM (50 eq); for ΔTm, ligand alone: no competitor; for affinity for the G-quadruplex structure of EBNA1 (in words, FRET-melting data): conclusion from Table 2
Text: The FRET-melting assay is based on thermal denaturation of G4-ARN monitored by fluorescence due to the phenomenon of Förster Resonance Energy Transfer (FRET). This method uses quadruplex-forming RNA sequence dual-labeled with two different fluorophores: a donor (fluorescein, or FAM) and an acceptor (tetramethylrhodamine, or TAMRA). When RNA is folded into G-quadruplex (G4) structure, fluorescence of the donor fluorophore is weak due to strong energy transfer (FRET) to the neighboring acceptor fluorophore. Upon thermal denaturation, the quadruplex unfolds and the fluorophores are separated, leading to decrease of the FRET effect and increase of the fluorescence of the donor (see FIG. 2). By following the fluorescence of the donor as a function of temperature, a melting curve of the G-quadruplex RNA can be obtained, which allows determining the temperature of denaturation at which 50% of the quadruples is unfolded (T1, FIG. 3).
The FRET-melting assay allows assessing the affinity of small molecules (ligands) for the G4-RNA. The addition of a G4-ligand stabilizes the G-quadruplex structure and increases the denaturation temperature. The temperature of denaturation in the presence of ligands (T2) can be compared with that obtained in the absence of ligands (T1). The value of ΔTm (ΔTm=T2−T1) represents a measure of the affinity of the compounds of the invention (ligand). Generally, values of ΔTm>20° C. correspond to ligands of high affinity.
The dual-labeled oligoribonucleotide EBNA1 [5′-FAM-r(GGGGCAGGAGCAGGAGGA)-TAMRA-3′] (SEQ ID no 2) purified by reversed-phase HPLC was purchased from Eurogentec. The donor fluorophore was 6-carboxyfluorescein (FAM) and the acceptor fluorophore was 6-carboxytetramethylrhodamine (TAMRA).
Stock solutions of the ligands (2 mM in DMSO) were used for FRET-melting assay, unless otherwise stated, and were stored at −20° C. FRET-melting measurements are performed on 7900HT Fast Real-Time PCR System (Applied Biosystems) with Microamp Fast optical 96-well reaction plate (Applied Biosystems).
Preparation of Oligonucleotides For FRET-melting assay, oligoribonucleotide F-EBNA1-T was dissolved in K^+10 buffer (10 mM lithium cacodylate buffer, pH 7.3, supplemented with 10 mM KCl and 90 mM LiCl).
Prior to use, all oligonucleotides were pre-treated by heating at 95° C. for 5 min, then rapidly cooled to 4° C. to favor the intramolecular folding by kinetic trapping. Duplex-DNA ds26 (5′CAA-TCG-GAT-CGA-ATT-CGA-TCC-GAT-TG-3′) (SEQ ID no 3) was prepared by heating this self-complementary strand at 90° C. for 5 min in K^+10 buffer followed by a slow cooling over 6 h.
FRET-melting assay is performed in 96-well plates on real time PCR apparatus 7900HT Fast Real-Time PCR System using the heating ramp as follow: 5 min at 25° C., then increase of 0.5° C. every minute until 95° C. Each experimental condition was tested in duplicated in a volume of 25 μL for each sample. The 96-well plates (Applied Biosystems) were prepared by aliquoting the annealed RNA (24 μL of 0.21 μM solution in K^+10 buffer) into each well, followed by 1 μL of ligand solution (25 μM in K^+10 buffer). For competition experiments, duplex competitors were added to 200 nM quadruplex sequences at final concentrations of 3.0 μM (15 eq) and 10.0 μM (50 eq), with a total reaction volume of 25 μL, with the labeled oligoribonucleotide (0.2 μM) and the ligand (1.0 μM). Measurements were made with excitation at 492 nm and detection at 516 nm. The change in the melting temperature in the presence of 1.0 μM putative ligand, ΔTm (1.0 μM), was calculated from at least two experiments by subtraction of the blank from the averaged melting temperature of each compound (1.0 μM).
The results are shown in FIG. 4 and in Table 2 below (higher ΔTm values indicate higher affinity of the compounds to G4-RNA structure of EBNA1).

[2] = test system: GAr-based inhibition of protein expression; assay: SDS-PAGE and western blot of 235GAr-OVA and OVA in transfected H1299 cells; assay type: cell-based
Text: The aim of these experiments is to assess the effect of the inventive compounds on the GAr-based inhibition of protein expression. For this purpose, H1299 cells were transfected by plasmids allowing expression of either EBNA1 or, as a control EBNA1ΔGAr and then treated, or not by various concentrations of the indicated compounds. […] Compounds able to interfere with GAr-based inhibition of translation will increase the steady state level of EBNA1, whereas a having no effect on EBNA1ΔGAr.
The ratio of the quantity of OVA or GAr-OVA relatively to GAPDH (the loading control) are indicated below the gel.

[3] = test system: EBNA1 expression in EBV-infected cells; assay: Western blot of endogenous EBNA1 in EBV-infected cell lines (B95.8, Mutu-1, Raji); assay type: cell-based; details: GAr-dependent; 2a in B95.8, Mutu-1 and Raji, 11a in Raji
Method: Therefore, compound 2a interferes with the GAr-based inhibition of protein expression. Interference with EBNA1 expression in EBV-infected cells was assessed in different cell lines. The principle of these experiments is the same than the one described in the paragraph just above except that the steady state level of endogenous EBNA1 is determined in these EBV-infected cell lines.
B95.8 cells are derived from cotton-top Tamarin Monkey peripheral blood lymphocyte EBV-positif. Mutu-1 cells are derived from an EBV-positive Burkitt's lymphoma biopsy specimen from a patient. Raji cells are EBV-positive type III latency Burkitt's lymphoma.
Compounds 2a and 11a increase in a GAr-dependent manner EBNA1 expression in EBV-infected cells.

C[n+]1ccc(C=NNC(=O)c2cccc(C(=O)NN=Cc3cc[n+](C)c4ccccc34)n2)c2ccccc21.[I-].[I-] [Compound 2a, N′^2, N′^6-Bis[(1-methylquinolinium-4-yl)methylene]pyridine-2,6-dicarbohydrazide iodide]
result in the yeast assay [1]: positive results
ΔTm, ligand + 3 μM ds26 (quadruplex RNA F-EBNA1-T): 16.1 ± 0.4 °C
ΔTm, ligand + 10 μM ds26 (quadruplex RNA F-EBNA1-T): 14.2 ± 0.7 °C
ΔTm, ligand alone (quadruplex RNA F-EBNA1-T): 16.4 ± 0.4 °C
affinity for the G-quadruplex structure of EBNA1 (in words, FRET-melting data) (quadruplex RNA F-EBNA1-T): particularly high affinity
OVA expression ([2]; control without GAr): no significant effect
steady-state level of 235GAr-OVA ([2]; dose-dependent, relative to GAPDH): significant increase
EBNA1 expression in EBV-infected cells [3]: increase

C[n+]1ccc(C=NNC(=O)c2ccc3ccc4ccc(C(=O)NN=Cc5cc[n+](C)c6ccccc56)nc4c3n2)c2ccccc21.[I-].[I-] [Compound 11a, N′^2,N′^9-Bis[(1-methylquinolinium-4-yl)methylene]-1,10-phenanthroline-2,9-dicarbohydrazide iodide]
result in the yeast assay [1]: positive results
ΔTm, ligand + 3 μM ds26 (quadruplex RNA F-EBNA1-T): 21.1 ± 0.6 °C
ΔTm, ligand + 10 μM ds26 (quadruplex RNA F-EBNA1-T): 19.3 ± 1.1 °C
ΔTm, ligand alone (quadruplex RNA F-EBNA1-T): 21.5 ± 0.2 °C
affinity for the G-quadruplex structure of EBNA1 (in words, FRET-melting data) (quadruplex RNA F-EBNA1-T): particularly high affinity
EBNA1 expression in EBV-infected cells [3]: increase
